Consider three substances from patent US6916783B2, “Methods for accelerating bone and cartilage growth and repair” (University of Southern California, priority 1998, dated 2005).

Entries after “also recorded” stand apart in the source; their conditions may differ.

A short description of experiment [1]: Effectiveness tests of AII fragments (method not described). Particulars: test not specified.
For another experiment, the target named is T1, AT2 receptor (Homo sapiens, UniProt P50052).
T1 sequence (P50052 1-363): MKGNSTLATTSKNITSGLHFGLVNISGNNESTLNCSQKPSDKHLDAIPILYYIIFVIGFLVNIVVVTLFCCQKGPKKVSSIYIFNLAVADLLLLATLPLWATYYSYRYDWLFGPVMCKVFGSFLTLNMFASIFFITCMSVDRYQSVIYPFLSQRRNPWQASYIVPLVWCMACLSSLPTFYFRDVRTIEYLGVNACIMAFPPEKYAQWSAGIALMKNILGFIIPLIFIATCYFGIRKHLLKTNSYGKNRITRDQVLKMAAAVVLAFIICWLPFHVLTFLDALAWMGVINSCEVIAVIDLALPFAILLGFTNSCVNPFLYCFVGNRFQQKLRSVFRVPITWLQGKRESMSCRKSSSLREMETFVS
The note with it: cited from earlier work.

A further experiment deals with chondrocytes. The experiment in a line: Rabbit chondrocyte proliferation in culture. It counts as cell-based. The note with it: 10 μg/ml peptide; days 1, 2, and 3 after culture initiation; nuclei counted after Giemsa stain; FIGS. 1-4. The procedure: Chondrocytes were isolated from the cartilage of the knee joints of adult rabbits and cultured according to the method of Okazaki et al. (Ann. Rheum. Dis. 55:181-186, 1996). Briefly, cartilage explants were minced into small pieces (approximately 1.5 mm by 1.5 mm). The tissue pieces were digested at 37° C. sequentially in 0.05% hyaluronidase (415 U/mg protein) for 10 minutes, 0.2% Type III trypsin (10,000 U/mg protein, Sigma) and 0.53 mM EDTA for 15 minutes, and 0.2% Type I collagenase (136 U/mg protein, Sigma) for 30 minutes. The samples were then washed and incubated overnight at 37° C. in 5% CO2 in air in Dulbecco's modified Eagle's medium enriched with 10% fetal calf serum, 3.5 mg/ml glucose, 0.2% Type I collagenase and antibiotics (100 U/ml penicillin and 100 μg/ml streptomycin).
After this incubation, the cells were harvested and washed once with phosphate buffered saline (pH 7.2). The cells were then counted with a hemacytometer and resuspended at 1×10^5 cells/ml in Ham's F12 supplemented with 10% fetal calf serum and antibiotics. A 10 ml aliquot of cells was transferred to collagen coated 25 cm^2 flasks (coated with collagen isolated from rat tail tendons) and incubated at 37° C. in 5% CO2 in air. […] Cell numbers were quantitated by staining the cells with Giemsa stain and counting the number of nuclei detected via microscopy.

In the case of Tyr-Ile-His-Pro-Phe (YIHPF) [AII(4-8)], the effectiveness in tests entry in experiment [1] is listed as “not to be effective; also recorded: ineffective in repeated tests”.
“Asp-Arg-Val-Tyr-Ile-His-Pro-Phe (DRVYIHPF) [AII]”: in the experiment with AT2 receptor, the “times higher affinity for AT2 than AT1” value is 100 times. In the experiment with chondrocytes, the “effect on chondrocyte proliferation” value is listed as “accelerated the chondrocyte proliferation”.
Turning to His-Pro-Phe (HPF) [AII(6-8)], the effectiveness in tests result in experiment [1] is “not to be effective”.
